# Experimental data taken from paper PMC7269146, “Jingzhaotoxin-X, a gating modifier of Kv4.2 and Kv4.3 potassium channels purified from the venom of the Chinese tarantula Chilobrachys jingzhao” (The Journal of Venomous Animals and Toxins Including …, 2020).
# Where a SMILES comes first, the peptide text is derived from it. Bridges are numbered along the chain shown (N, C = ends).
# Key:
# Kv1.3 = test: microelectrode voltage-clamp, Xenopus laevis oocytes, Kv1.3; type: cell-based; conditions: 10 μM, 300-ms depolarization to +20 mV from -90 mV, pH 7.5, 19-23°C, n = 3
# Method: Briefly, plasmids were linearized, and transcription was carried out according to the standardized protocol. Afterwards, the capped cRNAs that encoded the related ion channels were prepared. To conduct transcription in vitro, firstly, NotL was utilized to linearize plasmids pCI that contained both Kv1.1 (Accession: NM_010595.3) and Kv2.1 (Accession: AF026005.1), whereas SphI was adopted to linearize plasmid PcDNA3 containing Kv1.2 (Accession: NM_012970.3) gene. […] Thereafter, the linearized plasmids were used as the templates to synthesize cRNAs in vitro using the large-scale T7 mMESSAGE mMACHINE transcription kit (Ambion, USA).
# A mature female X. laevis was placed on the ice for anesthesia, and then the Xenopus laevis oocytes at stage IV-VI were extracted. Subsequently, those extracted oocytes were treated by collagenase (1 mg/mL) contained within the calcium-depleted ND96 solution (containing 96 mM NaCl, 10 mM HEPES, 1 mM MgCl2, and 2 mM KCl) for defolliculation. […]
# Firstly, the effects of JZTX-X on the isoforms of potassium channels (including Kv1.1-1.3, Kv2.1, as well as Kv4.2-4.3) contained within the X. laevis oocytes were investigated through the microelectrode voltage-clamp approach. […] We also determined the effects of JZTX-X on Ito potassium channels in rat DRG neurons; those current amplitudes were inhibited by 54.4±6.8% when 500 nM JZTX-X was applied (Fig. 3K, n = 5).
# HVA Cav channels = test: whole-cell voltage-clamp, HVA Cav currents of rat DRG neurons; type: cell-based; conditions: 10 μM, n = 3
compound,measurement,setting,value
"CC(C)C[C@@H]1NC(=O)[C@H](CCCCN)NC(=O)[C@H](Cc2ccc(O)cc2)NC(=O)[C@@H]2CSSC[C@@H]3NC(=O)[C@H](Cc4ccc(O)cc4)NC(=O)[C@H](Cc4ccccc4)NC(=O)CNC(=O)[C@H](C)NC(=O)[C@H](CSSC[C@H](NC(=O)[C@@H](N)CC(C)C)C(=O)N[C@@H](CO)C(=O)N[C@@H](CCCNC(=N)N)C(=O)N[C@@H](CCC(=O)O)C(=O)NCC(=O)N[C@@H](CCC(=O)O)C(=O)N[C@@H](Cc4ccccc4)C(=O)N2)NC(=O)[C@H](CSSC[C@@H](C(=O)N[C@@H](Cc2ccc(O)cc2)C(=O)N[C@@H](CCCNC(=N)N)C(=O)N[C@@H](CC(N)=O)C(=O)O)NC(=O)[C@H](Cc2c[nH]cn2)NC(=O)[C@H](CC(C)C)NC(=O)[C@H](C(C)C)NC(=O)[C@H](Cc2ccccc2)NC(=O)[C@H](C)NC(=O)[C@H](CCCCN)NC3=O)NC(=O)[C@H](CCCCN)NC(=O)[C@H](CCCNC(=N)N)NC1=O [JZTX-X, Jingzhaotoxin-X] (H-LCSREGEFCYKLRKCCAGFYCKAFVLHCYRN-OH; disulfide 2-16, 9-21, 15-28; N-terminus assumed)",inhibition of Kv1.3 current,Kv1.3,less than 5%
same,inhibition of HVA Cav current,HVA Cav channels,less than 5%
